Data reported in patent US20100273656A1, “COMPOSITION AND METHOD FOR SELECTIVE HERBICIDE” (priority 2002, published 2010).

Columns and labels:
dandelions [1] = assay: Example 7 potassium nonanoate with FeHEDTA, greenhouse dandelions; assay type: in vivo, Taraxacum officinale
Experimental: (§1) The following non-limiting examples serve to further describe the invention. Unless otherwise specified, all of the iron solutions were made using the same molar concentration of iron ion as chelating agent. All of the outside tests were done on areas of mixed grass and dandelions that were at least 2 months old. For the greenhouse tests, dandelions were grown in a commercial greenhouse mix, using supplemental lighting and heating. Each plant was grown in a 2¼ inch pot to a minimum diameter of 20 cm. All of the solutions were sprayed onto the plants at a rate of 100 ml/m^2. The ferrous sulfate formulations that were used in examples 1, 2, 8 and 9 contained 1% iron (180 mM), 18 mM EDTA, 1% citric acid and 0.5% urea. In all of the examples, the amount of iron is identified in brackets as the percent iron on a weight basis.
(§2) All plant damage was assessed using a qualitative rating scale from 0 to 9.
This test compared the damaged caused by combinations of fatty acid and FeHEDTA. FeHEDTA was used at a concentration to 35.8 mM. The treatment with 0.1% Fe contained twice the molar amount of chelating agent as iron. The treatment with 0.2% iron contained the same molar amount of chelating agent as iron Potassium nonanoate (KC9) was used at 0.84%. The plants were re-sprayed 8 days after the first spray.

dandelion [2] = assay: Example 21 Fe chelates with Killex, dandelion; assay type: in vivo, Taraxacum officinale; conditions: A29 = 29 days after treatment
Experimental: (§3) Plants were fertilized with an all purpose water-soluble fertilizer mix of 20-20-20 (N-P-K; Plant-Prod®) as needed. All broadleaf weeds were grown individually in a 2¼-inch pot until they were a suitable size for herbicide tests (actual weed size is reported in examples below). Perennial ryegrass was also grown in 2¼-inch pots, however many grass seeds were sown in the pot to simulate a small section of turf. Grass plants were continually trimmed to a height of 4 cm, simulating that of a homeowner's lawn. For field tests, plots ¼ m^2 in size were marked out in areas containing the targeted broadleaf weed species growing in turf grass. Plots were continually mowed to simulate a homeowner's lawn. […] In all of the examples, the amounts of the various herbicide components are identified as a percent on a weight basis.
(§4) Killex® (Scotts Canada, Ltd., Ontario, Canada) is a commonly used selective lawn herbicide and was used as the commercial herbicide for herbicide combinations. The labeled dilution and application rates for Killex® are 6 ml into 1 L of solution (0.6%) applied at 200 ml/m^2.
(§5) All visual plant damage assessments were made using a quantitative rating scale; percent control relative to the untreated check (0=no effect; 100=plant death).
(§6) Materials and Methods: This trial was conducted in the greenhouse. […] Phytotoxicity (%) was assessed 29 days after treatment (A29).

perennial ryegrass [3] = assay: Example 21 Fe chelates with Killex, perennial ryegrass; assay type: in vivo; conditions: A29 = 29 days after treatment
Experimental: as §3, §4, §5, §6

perennial ryegrass [4] = assay: Example 17 iron chelates with Killex, perennial ryegrass; assay type: in vivo
Experimental: as §3, §4, §5
(§7) Materials and Methods: This trial was conducted in the greenhouse. Nine pots of white clover and 10 pots of perennial ryegrass were selected for each treatment. Herbicidal solutions were prepared using deionized water. The treatments were applied using a handheld trigger sprayer at 200 ml/m^2. All treatments were applied once. Phytotoxicity (%) was assessed 4, 7, and 14 days after application (A4, A7, and A14).

white clover [5] = assay: Example 17 iron chelates with Killex, white clover; assay type: in vivo
Experimental: as §3, §4, §5, §7

dandelion [6] = assay: Example 14 field dandelion test of iron chelates and 50:50 mixtures; assay type: in vivo, Taraxacum officinale; parameters: Surviving Dandelions (%): concentration or dose not given beside the values
Text: Solutions were made of FeHEDTA (0.2% Fe), FeEDTA (0.2% Fe), FeEDDS (0.4% Fe), and FeMGDA (0.4% Fe). For the combinations, these 4 solutions were mixed together in a 1:1 ratio. The plots (0.25 m^2) were sprayed 3 times at weekly intervals at a rate of 0.1 L/m^2. The plots contained a mixture of dandelion and hard fescue turfgrass.

dandelions [7] = assay: Example 16 metal salts of EDTA, greenhouse dandelion mortality; assay type: in vivo, Taraxacum officinale; conditions: for Dead Dandelion (#/20): pH 7
Experimental: This test investigated various metal chelates. All chelate solutions contained 0.4% metal ions with 10% excess chelator, and were adjusted to pH 7. For the combinations, these 4 solutions were mixed together in a 1:1 ratio. The solutions were sprayed onto greenhouse grown dandelions at a rate of 100 ml/m^2. The test was re-sprayed after 7 days.

white clover [8] = assay: Example 23 Cu-, Mn- or ZnHEDTA with Killex, white clover; assay type: in vivo
Experimental: as §3, §4, §5
(§8) Materials and Methods: This trial was conducted in the greenhouse. Ten white clover plants and 10 pots of perennial ryegrass were selected for each treatment. Herbicide solutions were prepared using deionized water. The treatments were applied using a hand-trigger sprayer at 200 ml/m^2. All treatments were applied once. Phytotoxicity (%) was assessed 4 and 7 days after treatment (A4 and A7).

perennial ryegrass [9] = assay: Example 23 Cu-, Mn- or ZnHEDTA with Killex, perennial ryegrass; assay type: in vivo
Experimental: as §3, §4, §5, §8

dandelions [10] = assay: Example 1 field test of iron chelates, dandelion damage; assay type: in vivo, Taraxacum officinale; conditions: sprayed once at 100 ml/m^2, 5 days after spraying
Experimental: as §1, §2
(§9) All of the iron chelates were sprayed once at 0.2% Fe^+3 (35.8 mM), at a volume of 100 ml/m^2 onto 0.5 m^2 areas of mixed grass and dandelions. The spraying of the test was followed by 2 days of rain-free weather. Observations were made 5 days after spraying.

grass = assay: Example 1 field test of iron chelates, grass damage; assay type: in vivo; conditions: field, sprayed once at 100 ml/m^2, 5 days after spraying
Experimental: as §1, §2, §9

[11] = A4 = 4 days after application, 0=no effect, 100=plant death
[12] = A14 = 14 days after application
[13] = day 6, sprayed 3 times at weekly intervals
[14] = day 10 (re-sprayed after 7 days)

## CCCCCCCCC(=O)[O-].[K+] [KC9, Potassium nonanoate]
Dandelions [1]; 8 + 5 days after spraying
  Dead Plants (#/10): 0 #/10
Dandelions [1]; 8 + 5 days after spraying (re-sprayed after 8 days)
  Plant Damage (0 to 9): 0.6 0 to 9
Dandelions [1]; 7 days after spraying
  Plant Damage (0 to 9): 0.0 0 to 9

## CC(C(=O)[O-])N(CC(=O)[O-])CC(=O)[O-].[Fe+3] (stereo not shown) [FeMGDA]
Dandelion [2]
  Phytotoxicity (%) against dandelion: 12%
Perennial ryegrass [3]
  Phytotoxicity (%) on perennial ryegrass: 0%
Perennial ryegrass [4]; A4
  Phytotoxicity (%) against perennial ryegrass: 0%
Perennial ryegrass [4]; A7
  Phytotoxicity (%) against perennial ryegrass: 0%
Perennial ryegrass [4]; A14
  Phytotoxicity (%) against perennial ryegrass: 0%
White clover [5]; [11]
  Phytotoxicity (%) against white clover: 4%
White clover [5]; A7 = 7 days after application
  Phytotoxicity (%) against white clover: 5%
White clover [5]; [12]
  Phytotoxicity (%) against white clover: 2%
Dandelion [6]; day 0
  Area Covered by Dandelion (%): 30%
  Dandelion Count (#/0.25 m^2): 72 #/0.25 m^2
Dandelion [6]; day 6
  Dandelion Count (#/0.25 m^2): 71 #/0.25 m^2
  Surviving Dandelions (%): 99%
Dandelion [6]; [13]
  Area Covered by Dandelion (%): 17%
Dandelion [6]; day 11
  Dandelion Necrosis (%): 85%
Dandelion [6]; day 13
  Dandelion Count (#/0.25 m^2): 43 #/0.25 m^2
  Surviving Dandelions (%): 60%
Dandelion [6]; day 15
  Area Covered by Dandelion (%): 12%
Dandelion [6]; day 18
  Dandelion Necrosis (%): 99%
Dandelion [6]; day 21
  Area Covered by Dandelion (%): 2%
  Dandelion Count (#/0.25 m^2): 19 #/0.25 m^2
  Surviving Dandelions (%): 26%
Dandelion [6]; day 33
  Dandelion Necrosis (%): 80%

## O=C([O-])CN(CCN(CC(=O)O)CC(=O)O)CC(=O)[O-].[Cu+2] [Cu EDTA (0.4% Cu)]
Dandelions [7]; day 7
  Dead Dandelion (#/20): 0 #/20
Dandelions [7]; [14]
  Dead Dandelion (#/20): 4 #/20

## O=C([O-])CN(CCN(CC(=O)O)CC(=O)O)CC(=O)[O-].[Zn+2] [Zn EDTA (0.4% Zn)]
Dandelions [7]; day 7
  Dead Dandelion (#/20): 0 #/20
Dandelions [7]; [14]
  Dead Dandelion (#/20): 0 #/20

## O=C([O-])CN(CCO)CCN(CC(=O)[O-])CC(=O)[O-].[Cu+2] [CuHEDTA 0.4% Cu]
White clover [8]; A4
  Phytotoxicity (%) against white clover: 32%
White clover [8]; A7
  Phytotoxicity (%) against white clover: 62%
Perennial ryegrass [9]; A4
  Phytotoxicity (%) on perennial ryegrass: 3%
Perennial ryegrass [9]; A7
  Phytotoxicity (%) on perennial ryegrass: 3%

## O=C([O-])CN(CCN(CC(=O)[O-])CC(=O)O)CC(=O)[O-].[Al+3] [Al EDTA (0.4% Al)]
Dandelions [7]; day 7
  Dead Dandelion (#/20): 0 #/20
Dandelions [7]; [14]
  Dead Dandelion (#/20): 0 #/20

## O=C([O-])CN(CCO)CCN(CC(=O)[O-])CC(=O)[O-].[Mn+2] [MnHEDTA 0.4% Mn]
White clover [8]; A4
  Phytotoxicity (%) against white clover: 9%
White clover [8]; A7
  Phytotoxicity (%) against white clover: 12%
Perennial ryegrass [9]; A4
  Phytotoxicity (%) on perennial ryegrass: 1%
Perennial ryegrass [9]; A7
  Phytotoxicity (%) on perennial ryegrass: 1%

## O=C([O-])CN(CCN(CCO)CC(=O)O)CC(=O)[O-].[Zn+2] [ZnHEDTA 0.4% Zn]
White clover [8]; A4
  Phytotoxicity (%) against white clover: 4%
White clover [8]; A7
  Phytotoxicity (%) against white clover: 3%
Perennial ryegrass [9]; A4
  Phytotoxicity (%) on perennial ryegrass: 1%
Perennial ryegrass [9]; A7
  Phytotoxicity (%) on perennial ryegrass: 0%

## FeEDTA
Perennial ryegrass [4]; A4
  Phytotoxicity (%) against perennial ryegrass: 4%
Perennial ryegrass [4]; A7
  Phytotoxicity (%) against perennial ryegrass: 2%
Perennial ryegrass [4]; A14
  Phytotoxicity (%) against perennial ryegrass: 0%
White clover [5]; [11]
  Phytotoxicity (%) against white clover: 15%
White clover [5]; A7 = 7 days after application
  Phytotoxicity (%) against white clover: 15%
White clover [5]; [12]
  Phytotoxicity (%) against white clover: 6%
Dandelion [6]; day 0
  Area Covered by Dandelion (%): 30%
  Dandelion Count (#/0.25 m^2): 56 #/0.25 m^2
Dandelion [6]; day 6
  Dandelion Count (#/0.25 m^2): 33 #/0.25 m^2
  Surviving Dandelions (%): 59%
Dandelion [6]; [13]
  Area Covered by Dandelion (%): 10%
Dandelion [6]; day 11
  Dandelion Necrosis (%): 90%
Dandelion [6]; day 13
  Dandelion Count (#/0.25 m^2): 20 #/0.25 m^2
  Surviving Dandelions (%): 36%
Dandelion [6]; day 15
  Area Covered by Dandelion (%): 7%
Dandelion [6]; day 18
  Dandelion Necrosis (%): 98%
Dandelion [6]; day 21
  Area Covered by Dandelion (%): 1%
  Dandelion Count (#/0.25 m^2): 19 #/0.25 m^2
  Surviving Dandelions (%): 34%
Dandelion [6]; day 33
  Dandelion Necrosis (%): 90%
Dandelions [10]
  Dandelion Damage (0 to 9): 8.3 0 to 9
grass
  Grass Damage (0 to 9): 1
Dandelions [7]; Example 16, text
  herbicidal comparison of metal EDTA chelates, in words: better herbicide than Al EDTA, Cu EDTA and ZnEDTA
Dandelions [7]; day 7
  Dead Dandelion (#/20): 10 #/20
Dandelions [7]; [14]
  Dead Dandelion (#/20): 17 #/20

## [Cl][Fe]([Cl])[Cl] [FeCl3 (0.4% Fe), ferric chloride]
Dandelions [7]; day 7
  Dead Dandelion (#/20): 0 #/20
Dandelions [7]; [14]
  Dead Dandelion (#/20): 0 #/20
